Measured values from patent US20160060324A1, “Methods and Compositions for Treating Bleeding Disorders” (THE SCRIPPS RESEARCH INSTITUTE, priority 2013, published 2016).

What was measured:
C57BL/6J mice = test: Tolerance induction to T-dependent antigen HEL in mice (anti-HEL titers by ELISA); format: in vivo, mouse; conditions: for antibody suppression with varying amounts of ligand on HEL STALs: end of 44-day experiment, two challenges with immunogenic liposomes on days 15 and 30
Protocol: Whole blood (50 μL) was collected from mice via a retro-orbital bleed to obtain the serum after centrifugation (17,000 g, 1 min). Serum was aliquoted and stored at −20° C. Liposomes were delivered via the lateral tail vein in a volume of 200 μL. For studies involving a challenge with soluble (non-liposomal) antigen, mice were injected with 200 μg of HEL dissolved in HBSS and delivered intraperitoneally.
Maxisorp plates were coated (0/N, 4° C.) with the relevant protein (50 μL/well, 10 μg/mL) in PBS. NP4-7-BSA in PBS (Biosearch Technologies) was used to look for anti-NP antibodies. The following day, plates were washed twice in TBS-T (0.1% Tween 20) and blocked (1 hr, RT) with TBS-T containing 1% BSA. Serum was initially diluted between 20-10,000-fold and diluted in 2-3 fold serial dilutions eight times on the ELISA plate. Plates were incubated (1 hr, 37° C.) with serum (50 μL/well), washed four times, and incubated (1 hr, 37° C.) with the appropriate HRP-conjugated secondary antibodies (1:2000, Santa Cruz Biotechnologies). Following five washes, plates were developed (RT, 15 min) in 75 μL/well of TMB substrate (Thermo Fisher) and quenched with 75 μL/well of 2N H2SO4. Absorbance was measured at 450 nm and the endpoint titer was calculated as the dilution of serum that produced an absorbance 2-fold above background.
All liposomes were composed of a 60:35:5 molar ratio of distearoyl phosphatidylcholine (DSPC; Avanti Polar Lipids), cholesterol (Sigma), and pegylated lipids. The total mol % of pegylated lipids was always kept at 5%; made up of the appropriate combination of polyethyleneglycol(PEG2000)-distearoyl phosphoethanolamine (PEG-DSPE; Avanti Polar Lipids), ^BPANeuGc-PEG2000-DSPE, ^BPCNeuAc-PEG2000-DSPE, NP-PEG2000-DSPE or Protein-PEG2000-DSPE. […] The diameter of the liposomes were measured on a zetasizer (Malvern) and were consistently in the range of 100-130±30 nm. […]

murine CD22 = biological target: T1, murine CD22 (Mus musculus, UniProt P35329); conditions: higher affinity than natural ligand; cited from earlier work
T1 sequence (P35329 22-868): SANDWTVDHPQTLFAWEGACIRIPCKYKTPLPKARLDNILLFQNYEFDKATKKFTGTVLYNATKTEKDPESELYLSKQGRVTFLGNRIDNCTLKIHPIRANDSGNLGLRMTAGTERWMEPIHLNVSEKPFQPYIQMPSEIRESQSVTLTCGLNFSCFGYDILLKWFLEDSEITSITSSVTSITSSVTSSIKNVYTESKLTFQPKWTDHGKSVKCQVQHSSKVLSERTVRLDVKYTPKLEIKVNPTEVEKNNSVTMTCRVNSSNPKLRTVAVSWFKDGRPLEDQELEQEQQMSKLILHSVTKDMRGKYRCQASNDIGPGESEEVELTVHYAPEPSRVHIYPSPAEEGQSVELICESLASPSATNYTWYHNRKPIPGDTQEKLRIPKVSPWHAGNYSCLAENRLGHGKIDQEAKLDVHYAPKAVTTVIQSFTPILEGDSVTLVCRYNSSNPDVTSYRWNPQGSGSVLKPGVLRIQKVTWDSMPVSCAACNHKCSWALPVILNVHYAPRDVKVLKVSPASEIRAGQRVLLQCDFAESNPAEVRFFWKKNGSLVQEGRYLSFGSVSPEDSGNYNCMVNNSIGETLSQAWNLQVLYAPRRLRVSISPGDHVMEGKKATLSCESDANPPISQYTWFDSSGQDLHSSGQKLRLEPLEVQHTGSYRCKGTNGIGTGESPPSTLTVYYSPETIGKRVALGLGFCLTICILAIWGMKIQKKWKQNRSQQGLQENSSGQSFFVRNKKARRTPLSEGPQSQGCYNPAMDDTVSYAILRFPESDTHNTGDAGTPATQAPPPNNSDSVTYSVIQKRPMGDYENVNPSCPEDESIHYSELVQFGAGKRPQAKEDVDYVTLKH

Siglec-G = biological target: T2, Siglec-G (Mus musculus, UniProt Q80ZE3); conditions: cited from earlier work
T2 sequence (Q80ZE3 18-688): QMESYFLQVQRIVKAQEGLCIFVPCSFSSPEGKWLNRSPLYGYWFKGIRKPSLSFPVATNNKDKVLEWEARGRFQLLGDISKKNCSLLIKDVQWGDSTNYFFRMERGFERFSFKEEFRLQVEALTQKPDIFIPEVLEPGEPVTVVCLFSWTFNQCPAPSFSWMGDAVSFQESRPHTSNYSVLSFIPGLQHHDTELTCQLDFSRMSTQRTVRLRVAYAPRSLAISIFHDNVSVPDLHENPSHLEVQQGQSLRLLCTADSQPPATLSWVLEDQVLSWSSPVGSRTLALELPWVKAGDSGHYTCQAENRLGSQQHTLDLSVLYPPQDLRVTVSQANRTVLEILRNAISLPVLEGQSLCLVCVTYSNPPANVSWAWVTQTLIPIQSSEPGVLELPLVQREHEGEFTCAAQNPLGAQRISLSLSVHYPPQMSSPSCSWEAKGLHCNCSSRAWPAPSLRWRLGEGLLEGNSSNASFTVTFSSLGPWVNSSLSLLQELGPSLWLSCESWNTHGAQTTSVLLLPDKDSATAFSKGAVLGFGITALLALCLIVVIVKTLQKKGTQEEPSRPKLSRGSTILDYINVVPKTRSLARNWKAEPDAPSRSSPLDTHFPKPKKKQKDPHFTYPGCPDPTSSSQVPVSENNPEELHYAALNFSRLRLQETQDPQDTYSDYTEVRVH

Compound | difference in EC50 between the two ligands (^BPANeuGc vs NeuGc) on HEL STALs (C57BL/6J mice; antibody suppression titration, FIG. 1E) | antibody suppression with varying amounts of ligand on HEL STALs (C57BL/6J mice) | affinity for murine CD22 relative to its natural ligand (NeuGcα2-6Galβ1-4GlcNAc) (murine CD22) [fold] | cross-reactivity with Siglec-G (Siglec-G)
9-N-biphenylacetyl-NeuGcα2-6Galβ1-4GlcNAc [^BPANeuGc] | two orders of magnitude difference | dose-dependent effect on antibody suppression | 200 | only a small degree of cross-reactivity
CC(=O)NC1C(O)OC(CO)C(OC2OC(COC3(C(=O)O)CC(O)C(NC(=O)CO)C(C(O)C(O)CO)O3)C(O)C(O)C2O)C1O (centres unmarked) [NeuGc, NeuGcα2-6Galβ1-4GlcNAc] | – | dose-dependent effect on antibody suppression | – | –
